The record followed here is PubChem BioAssay AID686920 (Broad Institute, 2013).

Calls of active or inactive are those of the source.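 Rule for the calls: active = fitted curve reaching 35% inhibition at a dose no higher than twice the top valid tested dose; inconclusive = flat fit with 30 to 70% inhibition, or a poor fit; inactive = the rest, including activity in the opposite direction.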

The first test in a line: NR0B1 reporter signal reduction in A673 cells – cell-based, luciferase luminescence, cherry-pick, EWS/Fli inhibitor project, dose response (AID 686920). The conditions noted are these: A673 NR0B1-luciferase reporter, viability-normalised luminescence; at 21 µM (top of the series).
As to `Cc1ccc(Cc2c(-c3ccco3)nc3c(C)cc(Br)cn23)cc1`, the activity change, negative = inhibition was 77.8% (inactive).

The same test, now with this note: A673 NR0B1-luciferase reporter, viability-normalised luminescence; at 68 µM (top of the series).
For the compound `Cc1noc(C)c1C(=O)Nc1sccc1C(N)=O`, the activity change, negative = inhibition was 20.7% (inactive). The same measure, in the same setting: the figure for `Cc1noc(C)c1NC(=O)Nc1ccc2c(c1)CC(=O)N([C@@H](C)CO)C[C@@H](C)[C@@H](CN(C)Cc1ccc(Cl)c(Cl)c1)O2` is -31.5% (inactive). On the same count and under the same terms, the figure for `O=C(Cc1nn[nH]n1)c1ccccc1O` is 7.17% (inactive); for `CC(NC(=O)c1ccco1)c1nc(-c2ccc(C(C)(C)C)cc2)no1` (stereo not drawn) it is 73.3% (inactive); for `Cc1ccc(N=C2NC(=O)/C(=C\c3cccs3)S2)cc1C` it is 48.8% (inactive).

Regarding `CCOc1ccc(NC(=O)C(=O)N/N=C\c2ccc(CNS(=O)(=O)c3ccccc3)o2)cc1`, the activity change, negative = inhibition is -7.85% (inactive).

Take `COc1ccccc1-c1cn(CC[C@H]2CC[C@@H](NC(=O)C3CCCC3)[C@@H](CO)O2)nn1`: the activity change, negative = inhibition was -4.29% (inactive).

Take `COc1ccc(OC)c(-c2cc(C(F)(F)F)c3c(n2)sc2c(O)cc(=O)[nH]c23)c1`: the activity change, negative = inhibition was 5.23% (inactive).

Take `Cc1occc1-c1n[nH]c(=S)n1C`: the activity change, negative = inhibition was 10.2% (inactive). Consider `COc1ccc(NC(=S)N=Nc2c(O)[nH]c3ccccc23)cc1`, for which the activity change, negative = inhibition was 29.4% (inactive). For the compound `CN(C)Cc1c(O)ccc2c1O/C(=C\C=C\c1ccccc1)C2=O`, the activity change, negative = inhibition is 5.05% (inactive). The same measure, in the same setting: the value for `COC(=O)C[C@@H]1CC[C@@H]2[C@H](COc3ccc(NC(=O)c4cc(F)cc(F)c4)cc3C(=O)N2C)O1` was -0.173% (inactive); that for `COC(=O)C[C@@H]1CC[C@@H]2[C@H](COc3ccc(NC(=O)c4cccc(Cl)c4)cc3C(=O)N2C)O1` was -6.57% (inactive); that for `COC(=O)C[C@@H]1CC[C@@H]2[C@H](COc3ccc(NC(=O)Nc4cccc(C#N)c4)cc3C(=O)N2C)O1` was -24.9% (inactive). On to `CCCc1nc2ccc(NC(=O)c3cccs3)cc2c(=O)n1Cc1ccccc1Cl`, for which the activity change, negative = inhibition was 5.64% (inactive). Same read-out and setting: the value for `COC(=O)C[C@H]1CC[C@@H](NC(=O)Nc2ccc(C(F)(F)F)cc2)[C@H](CO)O1` was 16.7% (inactive); that for `COC(=O)C[C@@H]1CC[C@@H]2[C@@H](COc3ccc(NC(=O)Nc4cccc(Cl)c4)cc3C(=O)N2C)O1` was -7.4% (inactive); that for `Cc1ccc(NC(=O)COC(=O)c2ccc3c(c2)OCO3)cc1S(=O)(=O)N1CCCCC1` was 9.71% (inactive).

`CN(C)C(=O)c1ccc(-c2ccccc2[C@@H]2[C@@H](CO)N(C(=O)C3CC3)[C@H]2C#N)cc1`: the activity change, negative = inhibition is -1.25% (inactive). On the same count and under the same terms, the figure for `C/C=C/c1ccc(C2[C@@H]3CN(C(=O)Cc4ccccc4)C[C@H]2N3)cc1` (stereo partly drawn) is -8.33% (inactive); for `O=C(Nc1cccc(Oc2ccc3c(c2)C(=O)NC3=O)c1)c1cccs1` it is -4.58% (inactive); for `CCNC(=O)[C@@H]1[C@@H](CO)[C@@H]2Cn3c(ccc(C4=CCCCC4)c3=O)[C@H]1N2CC` it is -2.58% (inactive). In the case of `COC(=O)C[C@H]1CC[C@@H]2[C@H](COc3ccc(NC(=O)Nc4cccc(Cl)c4)cc3C(=O)N2C)O1`, the activity change, negative = inhibition is 14.5% (inactive).

For the compound `Cc1c(N=Cc2cc(Br)cc(Br)c2O)cccc1C(=O)O`, the activity change, negative = inhibition is 14.9% (inactive). Still for that read-out and setting: the value for `c1cncc(-c2ccc([C@@H]3[C@H]4CNC[C@@H]3N4CC3CCOCC3)cc2)c1` was -7.31% (inactive); that for `COC(=O)C[C@@H]1CC[C@@H]2[C@H](COc3ccc(NC(=O)c4ccc(F)cc4)cc3C(=O)N2C)O1` was -47% (inactive); that for `CCc1c(C(=O)NN2C(=O)C3CCCCC3C2=O)csc1C` (stereo not drawn) was 27.7% (inactive).
